What was measured:
Type in all cases: cell-based
Settings in all cases: after 10, 20, 40 and 60 minutes at all dilutions 1:100, 1:200, 1:400, 1:800
Pseudomonas aeruginosa = assay: Antimicrobial screening by agar dilution, Pseudomonas aeruginosa
Description: (§1) The antibacterial properties of the synthesized compound 2-benzo-[3,4-b]quinolino-[b,g]indeno[1′,2′:3,4]fluoreno-[1,2-d]oxonine-24-flouro-5,11,16,21-tetraone were studied by the method of agar dilution. Test solutions of each compound was prepared in concentration of 1% using dimethylformamide as a solvent then they are diluted in physiological solution to obtain the final experimental dilutions 1:100, 1:200, 1:400, 1:800. The effect of these substances are compared with furacillin in a controllable study. The testing microbes used were gram positive bacteria Staphylococcus aureus, gram negative bacteria Pseudomonas aeruginosa and Escherichia coli and Candida albicans fungus. The experiments used for this survey were meat-pentonlu agar (EPA) for cultivation of bacteria and Saburo environment for the fungus. Each experiment used 1 mL of test solution on each plate […]. Two drops of emulsified with microbes feel were added. All experimental samples were taken from the agar after 10, 20, 40, 60 minutes in the environment on the basis of Patrk planted. The bacteria were cultivated at a temperature of 37° C. for 1 day and the mushroom was kept in a thermostat for 2 hours at a temperature of 28° C. Then results were checked.

Escherichia coli = assay: Antimicrobial screening by agar dilution, Escherichia coli
Description: as §1

Candida albicans = assay: Antimicrobial (antifungal) screening by agar dilution, Candida albicans
Description: as §1

Staphylococcus aureus = assay: Antimicrobial screening by agar dilution, Staphylococcus aureus
Description: as §1

Measured: inhibition activity

O=C1Oc2nc3ccc(F)cc3cc2-c2c(c3c4ccccc4c(=O)c3c3c2c(=O)c2ccccc23)C(=O)c2ccccc21 [2-benzo-[3,4-b]quinolino-[b,g]indeno[1′,2′:3,4]fluoreno-[1,2-d]oxonine-24-flouro-5,11,16,21-tetraone]
highest inhibition activity: all assays above
